A word on the IC50: it is the concentration that inhibits the measured activity by half. A higher IC50 goes with weaker potency in that assay.

The target of experiment [1] is T1, human CCR2 (Homo sapiens, UniProt P41597).
T1 construct: host or cells: Chem-1 cell line
T1 sequence (P41597 1-360 isoform P41597-2): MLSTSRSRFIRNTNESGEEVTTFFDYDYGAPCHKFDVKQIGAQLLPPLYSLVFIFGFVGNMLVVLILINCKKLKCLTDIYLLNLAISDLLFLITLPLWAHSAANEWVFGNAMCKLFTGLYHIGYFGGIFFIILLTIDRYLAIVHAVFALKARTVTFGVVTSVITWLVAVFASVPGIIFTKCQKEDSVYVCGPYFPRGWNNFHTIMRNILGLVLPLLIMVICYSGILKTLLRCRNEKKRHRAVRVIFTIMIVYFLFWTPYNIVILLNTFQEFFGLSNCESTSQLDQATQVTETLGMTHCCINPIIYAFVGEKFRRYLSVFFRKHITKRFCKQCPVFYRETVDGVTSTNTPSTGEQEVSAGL
The experiment in a line: Functional Ca2+ release test (B-1). The format is cell-based. The settings on record: Chem-1 cell line transfected with human CCR2; 50% inhibition of the MCP-1 effect, MCP-1 at EC50 (about 5 nM); in some cases means of several determinations. The procedure, abridged:
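Inhibition of MCP-1-evoked Ca2+ release was measured over 120 s by fluorescence imaging in Fluo-4-loaded, human CCR2-transfected Chem-1 cells. Compounds, tested in 10-point 1:3.16 series, were added 10 min before agonist at its EC50 (typically about 5 nM). IC50 values were obtained by 4-parameter logistic fitting.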

Experiment [2] has as its target T2, murine CCR2 (Mus musculus, UniProt P51683).
T2 construct: host or cells: U2OS β-arrestin cell line
The experiment is described as follows: Functional β-arrestin recruiting test with murine MCP-1 (B-2b). The format is cell-based. Particulars: U2OS β-arrestin cell line transfected with murine CCR2; agonist murine MCP-1; in some cases means of several determinations. The procedure, abridged: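 In a PathHunter β-galactosidase complementation assay, U2OS cells expressing murine CCR2 were preincubated 10 min with compound (10-point, 1:3.16 dilutions), then challenged with murine MCP-1 at its predetermined EC50 for 90 min at 37 °C. Luminescence was read after 60 min, and IC50 was fitted with a 4-parameter Hill function.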

T2 sequence (P51683 whole entry): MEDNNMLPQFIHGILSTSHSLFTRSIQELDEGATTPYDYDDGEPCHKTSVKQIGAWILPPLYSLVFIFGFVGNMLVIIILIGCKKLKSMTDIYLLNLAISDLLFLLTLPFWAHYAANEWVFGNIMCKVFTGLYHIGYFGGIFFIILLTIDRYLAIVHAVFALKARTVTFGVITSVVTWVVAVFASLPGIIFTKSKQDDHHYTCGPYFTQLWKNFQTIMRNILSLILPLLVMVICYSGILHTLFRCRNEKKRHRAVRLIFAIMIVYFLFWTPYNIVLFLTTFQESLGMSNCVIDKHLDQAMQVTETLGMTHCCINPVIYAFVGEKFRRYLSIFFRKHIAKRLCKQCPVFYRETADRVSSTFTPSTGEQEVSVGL

As for `Cn1ccc(-c2nc(C(F)(F)F)c(Oc3ccc(Cl)c(C(F)(F)F)c3)c(=O)[nH]2)n1` [Example 226], the figures for the concentration for half-maximal inhibition (IC50) in experiment [1] and in experiment [2] were 0.5 nM and 87 nM, respectively.
The like results for `Cn1nc(-c2nc(C(F)(F)F)c(Oc3ccc(Cl)c(Cl)c3)c(=O)[nH]2)c2c(Cl)cccc21` [Example 141, 2-(4-chloro-1-methyl-1H-indazol-3-yl)-5-(3,4-dichlorophenoxy)-6-(trifluoromethyl)pyrimidin-4(3H)-one] were, in that order, 5.1 nM and 274 nM.
The like results for `O=c1[nH]c(-c2n[nH]c3ccccc23)nc(C(F)(F)F)c1Oc1ccc(Cl)c(C(F)(F)F)c1` [Example 140, 5-[4-chloro-3-(trifluoromethyl)phenoxy]-2-(1H-indazol-3-yl)-6-(trifluoromethyl)pyrimidin-4(3H)-one] were, in that order, 0.8 nM and 75 nM.
On the same counts, the results for `COc1conc1-c1nc(C(F)(F)F)c(Oc2ccc(Cl)c(Cl)c2)c(=O)[nH]1` [Example 179, 5-(3,4-dichlorophenoxy)-2-(4-methoxy-1,2-oxazol-3-yl)-6-(trifluoromethyl)pyrimidin-4(3H)-one] are 1.8 nM and 73 nM.
On to `CN(C)c1ccc(-c2nc(C(F)(F)F)c(Oc3ccc(Cl)c(C(F)(F)F)c3)c(=O)[nH]2)nc1` [Example 134, 5-[4-chloro-3-(trifluoromethyl)phenoxy]-2-[5-(dimethylamino)pyridin-2-yl]-6-(trifluoromethyl)pyrimidin-4(3H)-one], for which the concentration for half-maximal inhibition (IC50) was 2.1 nM in experiment [1] and 51 nM in experiment [2].
With `O=c1[nH]c(-c2ncccc2Cl)nc(C(F)(F)F)c1Cc1ccc(Cl)cc1` [Example 211], the values for the 50% inhibitory concentration (IC50) in experiment [1] and in experiment [2] were 1.5 nM and 299 nM, respectively.
The like results for `CCCc1cc(-c2nc(C(F)(F)F)c(Oc3ccc(Cl)c(Cl)c3)c(=O)[nH]2)no1` [Example 215] were, in that order, 7.9 nM and 1150 nM.
The like results for `COc1cc(C)nc(-c2nc(C(F)(F)F)c(Oc3ccc(Cl)c(Cl)c3)c(=O)[nH]2)n1` [Example 183, 5-(3,4-dichlorophenoxy)-4′-methoxy-6′-methyl-6-(trifluoromethyl)-2,2′-bipyrimidin-4(3H)-one] were, in that order, 2.9 nM and 145 nM.
Consider `CNc1ccnc(-c2nc(C(F)(F)F)c(Oc3ccc(Cl)c(C(F)(F)F)c3)c(=O)[nH]2)c1` [Example 169, 5-[4-chloro-3-(trifluoromethyl)phenoxy]-2-[4-(methylamino)pyridin-2-yl]-6-(trifluoromethyl)pyrimidin-4(3H)-one], for which the IC50 stood at 36 nM in experiment [1] and 624 nM in experiment [2].
On the same counts, the results for `COc1cn(C)nc1-c1nc(C(F)(F)F)c(Oc2ccc(Cl)c(C(F)(F)F)c2)c(=O)[nH]1` [Example 264, 5-[4-Chloro-3-(trifluoromethyl)phenoxy]-2-(4-methoxy-1-methyl-1H-pyrazol-3-yl)-6-(trifluoromethyl)pyrimidin-4(3H)-one] are 0.4 nM and 53 nM.
The like results for `Cn1nc(-c2nc(C(F)(F)F)c(Oc3ccc(Cl)c(C(F)(F)F)c3)c(=O)[nH]2)c2ccccc21` [Example 137, 5-[4-chloro-3-(trifluoromethyl)phenoxy]-2-(1-methyl-1H-indazol-3-yl)-6-(trifluoromethyl)pyrimidin-4(3H)-one] were, in that order, 16 nM and 334 nM.
Regarding `CCc1cccc(-c2nc(C(F)(F)F)c(Oc3ccc(Cl)c(Cl)c3)c(=O)[nH]2)n1` [Example 162, 2-(6-ethylpyridin-2-yl)-5-(3,4-dichlorophenoxy)-6-(trifluoromethyl)pyrimidin-4(3H)-one], the 50% inhibitory concentration (IC50) in experiment [1] came to 1.9 nM; in experiment [2], 1070 nM.
On the same counts, the results for `CC(C)(C)c1nncn1-c1nc(C(F)(F)F)c(Oc2ccc(Cl)c(Cl)c2)c(=O)[nH]1` [Example 251] are 76 nM and 6760 nM.
The like results for `COc1cc(OC)nc(-c2nc(C(F)(F)F)c(Oc3ccc(Cl)c(C(F)(F)F)c3)c(=O)[nH]2)n1` [Example 122, 5-[4-chloro-3-(trifluoromethyl)phenoxy]-4′,6′-dimethoxy-6-(trifluoromethyl)-2,2′-bipyrimidin-4(3H)-one] were, in that order, 0.6 nM and 164 nM.
The like results for `C[S+]([O-])c1cccnc1-c1nc(C(F)(F)F)c(Oc2ccc(Cl)c(Cl)c2)c(=O)[nH]1` (centres unmarked) [Example 267, 5-(3,4-Dichlorophenoxy)-2-[3-(methylsulphinyl)pyridin-2-yl]-6-(trifluoromethyl)pyrimidin-4(3H)-one] were, in that order, 103 nM and 679 nM.
Take `CC(C)(C)Sc1cccnc1-c1nc(C(F)(F)F)c(Oc2ccc(Cl)c(C(F)(F)F)c2)c(=O)[nH]1` [Example 190]: the results for the IC50 in experiment [1] and in experiment [2] were 62 nM and 2110 nM, respectively.
The like results for `O=c1[nH]c(-c2cc(C3CC3)on2)nc(C(F)(F)F)c1Oc1ccc(Cl)c(Cl)c1` [Example 219] were, in that order, 7.2 nM and 1040 nM.
On the same counts, the results for `O=c1[nH]c(-c2cnccn2)nc(C(F)(F)F)c1Oc1ccc(Cl)c(C(F)(F)F)c1` [Example 132, 5-[4-chloro-3-(trifluoromethyl)phenoxy]-2-(pyrazin-2-yl)-6-(trifluoromethyl)pyrimidin-4(3H)-one] are 3.8 nM and 259 nM.
On the same counts, the results for `O=c1[nH]c(-c2ncccc2Br)nc(C(F)(F)F)c1Oc1ccc(Cl)c(C(F)(F)F)c1` [Example 182, 2-(3-bromopyridin-2-yl)-5-[4-chloro-3-(trifluoromethyl)phenoxy]-6-(trifluoromethyl)pyrimidin-4(3H)-one] are 0.3 nM and 8.4 nM.
Turning to `COc1cncnc1-c1nc(C(F)(F)F)c(Oc2ccc(Cl)c(C(F)(F)F)c2)c(=O)[nH]1` [Example 120, 5-[4-chloro-3-(trifluoromethyl)phenoxy]-5′-methoxy-6-(trifluoromethyl)-2,4′-bipyrimidin-4(3H)-one], the half-maximal inhibitory concentration (IC50) in experiment [1] came to 0.5 nM; in experiment [2], 44 nM.
Regarding `O=c1[nH]c(-n2cncn2)nc(C(F)(F)F)c1Oc1ccc(Cl)c(Cl)c1` [Example 255, 5-(3,4-Dichlorophenoxy)-2-(1H-1,2,4-triazol-1-yl)-6-(trifluoromethyl)pyrimidin-4(3H)-one], the IC50 in experiment [1] was 38 nM; in experiment [2] it was 1340 nM.
The like results for `Cn1nc(-c2nc(C(F)(F)F)c(Oc3ccc(Cl)c(C(F)(F)F)c3)c(=O)[nH]2)c2c(Cl)cccc21` [Example 142, 2-(4-chloro-1-methyl-1H-indazol-3-yl)-5-[4-chloro-3-(trifluoromethyl)phenoxy]-6-(trifluoromethyl)pyrimidin-4(3H)-one] were, in that order, 3.3 nM and 246 nM.
On the same counts, the results for `COc1cc(OC)nc(-c2nc(C(F)(F)F)c(Oc3ccc(Cl)c(Cl)c3)c(=O)[nH]2)n1` [Example 156, 5-(3,4-dichlorophenoxy)-4′,6′-dimethoxy-6-(trifluoromethyl)-2,2′-bipyrimidin-4(3H)-one] are 0.7 nM and 244 nM.
On the same counts, the results for `CC(=O)Nc1ccc(-c2nc(C(F)(F)F)c(Oc3ccc(Cl)c(C(F)(F)F)c3)c(=O)[nH]2)nc1` [Example 199] are 0.6 nM and 110 nM.
`O=c1[nH]c(-c2ccon2)nc(C(F)(F)F)c1Oc1ccc(Cl)c(Cl)c1` [Example 229]: the IC50 in experiment [1] was determined as 0.5 nM; in experiment [2] it was 44 nM.
